From the supplement of paper PMC8612539
Values after ≈ are worked out from the molar mass of the structure shown.

System: Mannheimia haemolytica
Assay: minimum inhibitory concentration (MIC)
Protocol: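 Broth microdilution MIC (Sensititre BOPO7F bovine plate, CLSI methods) of 19 antimicrobials against field isolates of P. multocida, M. haemolytica, H. somni (deep nasopharyngeal swabs) and E. coli, Enterococcus spp. (rectal swabs) from weaned dairy heifers. Incubation 16-24 h at 35 C. MIC is the lowest concentration preventing visible growth. Values with <= or > lie at the tested range limits. Trimethoprim-sulfamethoxazole is given as the trimethoprim component of a 1:19 mixture.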

In the case of CN[C@@H]1[C@H](O)[C@H](NC)[C@H]2O[C@@]3(O)C(=O)C[C@@H](C)O[C@H]3O[C@@H]2[C@H]1O [Spectinomycin], the minimum inhibitory concentration (isolate (source animal id): 8) is reported as 32 µg/mL (≈ 96.3 µM), the minimum inhibitory concentration (isolate (source animal id): 13) is reported as 32 µg/mL (≈ 96.3 µM) and the minimum inhibitory concentration (isolate (source animal id): 18) is reported as 32 µg/mL (≈ 96.3 µM). For the same compound, the minimum inhibitory concentration (isolate (source animal id): 21) was 32 µg/mL (≈ 96.3 µM), the minimum inhibitory concentration (isolate (source animal id): 25) was 32 µg/mL (≈ 96.3 µM) and the minimum inhibitory concentration (isolate (source animal id): 27) was 32 µg/mL (≈ 96.3 µM). For the same compound, the minimum inhibitory concentration (isolate (source animal id): 28) was > 64 µg/mL, the minimum inhibitory concentration (isolate (source animal id): 30) was 32 µg/mL (≈ 96.3 µM) and the minimum inhibitory concentration (isolate (source animal id): 31) was > 64 µg/mL. It also gave a minimum inhibitory concentration (isolate (source animal id): 32) of 32 µg/mL (≈ 96.3 µM), a minimum inhibitory concentration (isolate (source animal id): 34) of 32 µg/mL (≈ 96.3 µM) and a minimum inhibitory concentration (isolate (source animal id): 36) of 32 µg/mL (≈ 96.3 µM). It also gave a minimum inhibitory concentration (isolate (source animal id): 37) of 32 µg/mL (≈ 96.3 µM), a minimum inhibitory concentration (isolate (source animal id): 40) of 32 µg/mL (≈ 96.3 µM) and a minimum inhibitory concentration (isolate (source animal id): 41) of 32 µg/mL (≈ 96.3 µM). For the same compound, the minimum inhibitory concentration (isolate (source animal id): 43) was 32 µg/mL (≈ 96.3 µM), the minimum inhibitory concentration (isolate (source animal id): 46) was 32 µg/mL (≈ 96.3 µM) and the minimum inhibitory concentration (isolate (source animal id): 49) was 32 µg/mL (≈ 96.3 µM). It also gave a minimum inhibitory concentration (isolate (source animal id): 50) of 32 µg/mL (≈ 96.3 µM), a minimum inhibitory concentration (isolate (source animal id): 51) of 32 µg/mL (≈ 96.3 µM) and a minimum inhibitory concentration (isolate (source animal id): 52) of 32 µg/mL (≈ 96.3 µM). The minimum inhibitory concentration (isolate (source animal id): 53) was 32 µg/mL (≈ 96.3 µM), the minimum inhibitory concentration (isolate (source animal id): 55) was 32 µg/mL (≈ 96.3 µM) and the minimum inhibitory concentration (isolate (source animal id): 56) was 32 µg/mL (≈ 96.3 µM). The minimum inhibitory concentration (isolate (source animal id): 57) was > 64 µg/mL, the minimum inhibitory concentration (isolate (source animal id): 100) was > 64 µg/mL and the minimum inhibitory concentration (isolate (source animal id): 103) was 32 µg/mL (≈ 96.3 µM). For the same compound, the minimum inhibitory concentration (isolate (source animal id): 107) was 32 µg/mL (≈ 96.3 µM), the minimum inhibitory concentration (isolate (source animal id): 108) was > 64 µg/mL and the minimum inhibitory concentration (isolate (source animal id): 112) was 32 µg/mL (≈ 96.3 µM). For the same compound, the minimum inhibitory concentration (isolate (source animal id): 113) was > 64 µg/mL, the minimum inhibitory concentration (isolate (source animal id): 121) was 32 µg/mL (≈ 96.3 µM) and the minimum inhibitory concentration (isolate (source animal id): 122) was 32 µg/mL (≈ 96.3 µM). For the same compound, the minimum inhibitory concentration (isolate (source animal id): 123) was > 64 µg/mL, the minimum inhibitory concentration (isolate (source animal id): 126) was 32 µg/mL (≈ 96.3 µM) and the minimum inhibitory concentration (isolate (source animal id): 133) was 32 µg/mL (≈ 96.3 µM). The minimum inhibitory concentration (isolate (source animal id): 135) was > 64 µg/mL, the minimum inhibitory concentration (isolate (source animal id): 138) was 32 µg/mL (≈ 96.3 µM) and the minimum inhibitory concentration (isolate (source animal id): 141) was > 64 µg/mL. It also gave a minimum inhibitory concentration (isolate (source animal id): 142) of 32 µg/mL (≈ 96.3 µM), a minimum inhibitory concentration (isolate (source animal id): 145) of 16 µg/mL (≈ 48.1 µM) and a minimum inhibitory concentration (isolate (source animal id): 149) of 32 µg/mL (≈ 96.3 µM). It also gave a minimum inhibitory concentration (isolate (source animal id): 151) of 32 µg/mL (≈ 96.3 µM), a minimum inhibitory concentration (isolate (source animal id): 152) of 16 µg/mL (≈ 48.1 µM) and a minimum inhibitory concentration (isolate (source animal id): 154) of 32 µg/mL (≈ 96.3 µM). The minimum inhibitory concentration (isolate (source animal id): 159) was 16 µg/mL (≈ 48.1 µM), the minimum inhibitory concentration (isolate (source animal id): 162) was 16 µg/mL (≈ 48.1 µM) and the minimum inhibitory concentration (isolate (source animal id): 170) was 32 µg/mL (≈ 96.3 µM). For the same compound, the minimum inhibitory concentration (isolate (source animal id): 171) was 32 µg/mL (≈ 96.3 µM), the minimum inhibitory concentration (isolate (source animal id): 172) was 32 µg/mL (≈ 96.3 µM) and the minimum inhibitory concentration (isolate (source animal id): 173) was 32 µg/mL (≈ 96.3 µM). The minimum inhibitory concentration (isolate (source animal id): 179) was 32 µg/mL (≈ 96.3 µM), the minimum inhibitory concentration (isolate (source animal id): 180) was 32 µg/mL (≈ 96.3 µM) and the minimum inhibitory concentration (isolate (source animal id): 183) was 32 µg/mL (≈ 96.3 µM). The minimum inhibitory concentration (isolate (source animal id): 186) was 32 µg/mL (≈ 96.3 µM), the minimum inhibitory concentration (isolate (source animal id): 187) was 32 µg/mL (≈ 96.3 µM) and the minimum inhibitory concentration (isolate (source animal id): 188) was 32 µg/mL (≈ 96.3 µM). The minimum inhibitory concentration (isolate (source animal id): 190) was 32 µg/mL (≈ 96.3 µM), the minimum inhibitory concentration (isolate (source animal id): 191) was 32 µg/mL (≈ 96.3 µM) and the minimum inhibitory concentration (isolate (source animal id): 192) was 32 µg/mL (≈ 96.3 µM). For the same compound, the minimum inhibitory concentration (isolate (source animal id): 201) was 32 µg/mL (≈ 96.3 µM), the minimum inhibitory concentration (isolate (source animal id): 202) was 32 µg/mL (≈ 96.3 µM) and the minimum inhibitory concentration (isolate (source animal id): 209) was 32 µg/mL (≈ 96.3 µM). The minimum inhibitory concentration (isolate (source animal id): 211) was 32 µg/mL (≈ 96.3 µM), the minimum inhibitory concentration (isolate (source animal id): 220) was 32 µg/mL (≈ 96.3 µM) and the minimum inhibitory concentration (isolate (source animal id): 221) was 32 µg/mL (≈ 96.3 µM). The minimum inhibitory concentration (isolate (source animal id): 223) was ≤ 8 µg/mL, the minimum inhibitory concentration (isolate (source animal id): 233) was 32 µg/mL (≈ 96.3 µM) and the minimum inhibitory concentration (isolate (source animal id): 237) was 32 µg/mL (≈ 96.3 µM). For the same compound, the minimum inhibitory concentration (isolate (source animal id): 241) was 32 µg/mL (≈ 96.3 µM), the minimum inhibitory concentration (isolate (source animal id): 252) was 32 µg/mL (≈ 96.3 µM) and the minimum inhibitory concentration (isolate (source animal id): 253) was > 64 µg/mL. The minimum inhibitory concentration (isolate (source animal id): 259) was 32 µg/mL (≈ 96.3 µM), the minimum inhibitory concentration (isolate (source animal id): 260) was > 64 µg/mL and the minimum inhibitory concentration (isolate (source animal id): 262) was 32 µg/mL (≈ 96.3 µM). It also gave a minimum inhibitory concentration (isolate (source animal id): 282) of 32 µg/mL (≈ 96.3 µM), a minimum inhibitory concentration (isolate (source animal id): 287) of 32 µg/mL (≈ 96.3 µM) and a minimum inhibitory concentration (isolate (source animal id): 288) of 32 µg/mL (≈ 96.3 µM). The minimum inhibitory concentration (isolate (source animal id): 291) was 32 µg/mL (≈ 96.3 µM), the minimum inhibitory concentration (isolate (source animal id): 293) was 16 µg/mL (≈ 48.1 µM) and the minimum inhibitory concentration (isolate (source animal id): 298) was 16 µg/mL (≈ 48.1 µM). The minimum inhibitory concentration (isolate (source animal id): 299) was 32 µg/mL (≈ 96.3 µM), the minimum inhibitory concentration (isolate (source animal id): 300) was 32 µg/mL (≈ 96.3 µM) and the minimum inhibitory concentration (isolate (source animal id): 302) was 32 µg/mL (≈ 96.3 µM). For the same compound, the minimum inhibitory concentration (isolate (source animal id): 304) was 32 µg/mL (≈ 96.3 µM), the minimum inhibitory concentration (isolate (source animal id): 306) was 32 µg/mL (≈ 96.3 µM) and the minimum inhibitory concentration (isolate (source animal id): 308) was 32 µg/mL (≈ 96.3 µM). The minimum inhibitory concentration (isolate (source animal id): 309) was 32 µg/mL (≈ 96.3 µM), the minimum inhibitory concentration (isolate (source animal id): 313) was 16 µg/mL (≈ 48.1 µM) and the minimum inhibitory concentration (isolate (source animal id): 318) was 16 µg/mL (≈ 48.1 µM). For the same compound, the minimum inhibitory concentration (isolate (source animal id): 320) was 32 µg/mL (≈ 96.3 µM), the minimum inhibitory concentration (isolate (source animal id): 321) was 16 µg/mL (≈ 48.1 µM) and the minimum inhibitory concentration (isolate (source animal id): 323) was 32 µg/mL (≈ 96.3 µM). The minimum inhibitory concentration (isolate (source animal id): 324) was 16 µg/mL (≈ 48.1 µM), the minimum inhibitory concentration (isolate (source animal id): 326) was 16 µg/mL (≈ 48.1 µM) and the minimum inhibitory concentration (isolate (source animal id): 328) was 16 µg/mL (≈ 48.1 µM). It also gave a minimum inhibitory concentration (isolate (source animal id): 329) of 16 µg/mL (≈ 48.1 µM), a minimum inhibitory concentration (isolate (source animal id): 333) of 16 µg/mL (≈ 48.1 µM) and a minimum inhibitory concentration (isolate (source animal id): 335) of 16 µg/mL (≈ 48.1 µM). It also gave a minimum inhibitory concentration (isolate (source animal id): 338) of 16 µg/mL (≈ 48.1 µM).
